Read-outs that look alike come from different tables or passages of the source. Bridge positions count the residues as written; N and C are the ends. Square brackets hold non-standard residues; d marks the D form. Peptide text beside a SMILES is read from it. Nle = CCCC[C@H](N)C(=O)O
Test system: rat anterior pituitary cells
Assay: In vitro stimulation of ACTH and β-endorphin secretion by cultured rat pituitary cells, potency compared with oCRF (Standard) or r/hCRF
Format: cell-based
Conditions: for in vitro biopotency, comparison in words: compared with the Standard or with a named analog
Protocol: The cyclic CRF agonists are examined for their effects on the secretion of ACTH and β-endorphin in vitro and also in vivo. […] In vivo testing is carried out using the general procedure set forth in C. Rivier et al., Science, 218, 377 (1982).

[1] = relative to the laboratory Standard (synthetic oCRF), cultured rat pituitary cells, limits in parentheses

## CC[C@H](C)[C@H](NC(=O)[C@@H]1CCCN1C(=O)[C@@H]1CCCN1C(C)=O)C(=O)N[C@@H](CO)C(=O)N[C@@H](CC(C)C)C(=O)N[C@@H](CC(=O)O)C(=O)N[C@@H](CC(C)C)C(=O)N[C@H](C(=O)N[C@H](Cc1ccccc1)C(=O)N[C@@H](Cc1c[nH]cn1)C(=O)N[C@@H](CC(C)C)C(=O)N[C@@H](CC(C)C)C(=O)N[C@@H](CCCNC(=N)N)C(=O)N[C@@H](CCC(=O)O)C(=O)N[C@@H](CCSC)C(=O)N[C@@H](CC(C)C)C(=O)N[C@@H](CCC(=O)O)C(=O)N[C@@H](CCSC)C(=O)N[C@@H](C)C(=O)N[C@@H](CCCCN)C(=O)N[C@@H](C)C(=O)N[C@@H](CCC(=O)O)C(=O)N[C@@H](CCC(N)=O)C(=O)N[C@@H](CCC(=O)O)C(=O)N[C@@H](C)C(=O)N[C@@H](CCC(=O)O)C(=O)N[C@H]1CCC(=O)NCCCC[C@@H](C(=O)N[C@@H](CC(N)=O)C(=O)N[C@@H](CCCNC(=N)N)C(=O)N[C@@H](CC(C)C)C(=O)N[C@@H](CC(C)C)C(=O)N[C@@H](CC(C)C)C(=O)N[C@@H](CCC(=O)O)C(=O)N[C@@H](CCC(=O)O)C(=O)N[C@@H](C)C(N)=O)NC(=O)[C@H](C)NC(=O)[C@H](C)NC1=O)[C@@H](C)O [(cyclo 30-33)[Ac-Pro^4, D-Phe^12, Glu^30, Lys^33]-AHC(4-41)] (Ac-PPISLDLT[dF]HLLREMLEMAKAEQEAEEAAKNRLLLEEA-NH2; lactam 27-30)
[1]
  in vitro potency to stimulate secretion of ACTH relative to the Standard: about 7.5 times

## CCCC[C@H](NC(=O)[C@H](CCC(=O)O)NC(=O)[C@@H](NC(=O)[C@H](CCCC)NC(=O)[C@H](CC(N)=O)NC(=O)[C@H](CCCNC(=N)N)NC(=O)[C@H](CC(C)C)NC(=O)[C@H](CC(C)C)NC(=O)[C@H](Cc1c[nH]cn1)NC(=O)[C@@H](Cc1ccccc1)NC(=O)[C@@H](NC(=O)[C@H](CC(C)C)NC(=O)[C@H](CC(=O)O)NC(=O)[C@@H](NC(=O)[C@H](CO)NC(=O)[C@@H](NC(=O)[C@H]1CCCN1C(=O)[C@@H]1CCCN1C(C)=O)[C@@H](C)CC)[C@@H](C)CC)[C@@H](C)O)[C@@H](C)CC)C(=O)N[C@@H](C)C(=O)N[C@@H](CCCNC(=N)N)C(=O)N[C@@H](CC(N)=O)C(=O)N[C@@H](CCC(=O)O)C(=O)N[C@@H](CC(N)=O)C(=O)N[C@@H](CCC(N)=O)C(=O)N[C@@H](CCCNC(=N)N)C(=O)N[C@@H](CCC(=O)O)C(=O)N[C@H]1CCC(=O)NCCCC[C@@H](C(=O)N[C@@H](CC(N)=O)C(=O)N[C@@H](CCCNC(=N)N)C(=O)N[C@@H](CCCCN)C(=O)N[C@@H](Cc2ccc(O)cc2)C(=O)N[C@@H](CC(C)C)C(=O)N[C@@H](CC(=O)O)C(=O)N[C@@H](CCC(=O)O)C(=O)N[C@H](C(N)=O)C(C)C)NC(=O)[C@@H](C)NC(=O)[C@H](C)NC1=O [Example 8 A D-Ala^32 analog] (Ac-P[dP]ISIDLT[dF]HLLRN[Nle]IE[Nle]ARNENQREEA[dA]KNRKYLDEV-NH2; lactam 27-30)
  in vitro potency to stimulate secretion of ACTH relative to the Standard: about 4.9 times

## CCCC[C@H](NC(=O)[C@H](CCCCN)NC(=O)[C@H](CCCNC(=N)N)NC(=O)[C@H](CC(C)C)NC(=O)[C@H](CC(C)C)NC(=O)[C@H](CCC(=O)O)NC(=O)[C@@H](CC(C)C)NC(=O)[C@H](CO)NC(=O)[C@H](CC(C)C)NC(=O)[C@H](CC(=O)O)NC(=O)[C@@H](NC(=O)[C@H](CO)NC(=O)[C@@H](NC(=O)[C@H]1CCCN1C(=O)[C@@H]1CCCN1C(C)=O)[C@@H](C)CC)[C@@H](C)CC)C(=O)N[C@H](C(=O)N[C@@H](CCC(=O)O)C(=O)N[C@H](C(=O)N[C@@H](CCC(=O)O)C(=O)N[C@@H](CCCCN)C(=O)N[C@@H](CCC(N)=O)C(=O)N[C@@H](CCC(=O)O)C(=O)N[C@@H](CCCCN)C(=O)N[C@@H](CCC(=O)O)C(=O)N[C@@H](CCCCN)C(=O)N[C@@H](CCC(N)=O)C(=O)N[C@H]1CCC(=O)NCCCC[C@@H](C(=O)N[C@@H](CC(N)=O)C(=O)N[C@@H](CCCNC(=N)N)C(=O)N[C@@H](CC(C)C)C(=O)N[C@@H](CC(C)C)C(=O)N[C@@H](CC(C)C)C(=O)N[C@@H](CC(=O)O)C(=O)N[C@H](C(=O)N[C@H](C(N)=O)[C@@H](C)CC)[C@@H](C)O)NC(=O)[C@@H](C)NC(=O)[C@H](C)NC1=O)[C@@H](C)CC)[C@@H](C)CC [Example 8 B D-Ala^31 analog] (Ac-P[dP]ISIDLS[dL]ELLRK[Nle]IEIEKQEKEKQEA[dA]KNRLLLDTI-NH2; lactam 27-30)
[1]
  in vitro potency to stimulate secretion of ACTH relative to the Standard: about 2 times

## CCCC[C@H](NC(=O)[C@H](CCC(=O)O)NC(=O)[C@H](CC(C)C)NC(=O)[C@H](CCCC)NC(=O)[C@H](CCC(=O)O)NC(=O)[C@H](CCCNC(=N)N)NC(=O)[C@H](CC(C)C)NC(=O)[C@H](CC(C)C)NC(=O)[C@H](Cc1c[nH]cn1)NC(=O)[C@@H](Cc1ccccc1)NC(=O)[C@@H](NC(=O)[C@H](CC(C)C)NC(=O)[C@H](CC(=O)O)NC(=O)[C@H](CC(C)C)NC(=O)[C@H](CO)NC(=O)[C@@H](NC(=O)[C@H]1CCCN1C(=O)[C@@H]1CCCN1C(C)=O)[C@@H](C)CC)[C@@H](C)O)C(=O)N[C@@H](C)C(=O)N[C@@H](CCCCN)C(=O)N[C@@H](C)C(=O)N[C@@H](CCC(=O)O)C(=O)N[C@@H](CCC(N)=O)C(=O)N[C@@H](CCC(=O)O)C(=O)N[C@@H](C)C(=O)N[C@@H](CCC(=O)O)C(=O)N[C@H]1CCC(=O)NCCCC[C@@H](C(=O)N[C@@H](CC(N)=O)C(=O)N[C@@H](CCCNC(=N)N)C(=O)N[C@@H](CC(C)C)C(=O)N[C@@H](CC(C)C)C(=O)N[C@@H](CC(C)C)C(=O)N[C@@H](CCC(=O)O)C(=O)N[C@@H](CCC(=O)O)C(=O)N[C@@H](C)C(N)=O)NC(=O)[C@@H](C)NC(=O)[C@H](C)NC1=O [Example 8 C D-Ala^32 analog] (Ac-P[dP]ISLDLT[dF]HLLRE[Nle]LE[Nle]AKAEQEAEEA[dA]KNRLLLEEA-NH2; lactam 27-30)
  in vitro potency to stimulate secretion of ACTH relative to the Standard: about 6.35 times

## CCCC[C@H](NC(=O)[C@H](CCC(=O)O)NC(=O)[C@H](CC(C)C)NC(=O)[C@H](CCCC)NC(=O)[C@H](CCC(=O)O)NC(=O)[C@H](CCCNC(=N)N)NC(=O)[C@H](CC(C)C)NC(=O)[C@H](CC(C)C)NC(=O)[C@H](Cc1c[nH]cn1)NC(=O)[C@@H](Cc1ccccc1)NC(=O)[C@@H](NC(=O)[C@H](CC(C)C)NC(=O)[C@H](CC(=O)O)NC(=O)[C@H](CC(C)C)NC(=O)[C@H](CO)NC(C)=O)[C@@H](C)O)C(=O)N[C@@H](C)C(=O)N[C@@H](CCCCN)C(=O)N[C@@H](C)C(=O)N[C@@H](CCC(=O)O)C(=O)N[C@@H](CCC(N)=O)C(=O)N[C@@H](CCC(=O)O)C(=O)N[C@@H](C)C(=O)N[C@@H](CCC(=O)O)C(=O)N[C@H]1CCC(=O)NCCCC[C@@H](C(=O)N[C@@H](CC(N)=O)C(=O)N[C@@H](CCCNC(=N)N)C(=O)N[C@@H](CC(C)C)C(=O)N[C@@H](CC(C)C)C(=O)N[C@@H](CC(C)C)C(=O)N[C@@H](CCC(=O)O)C(=O)N[C@@H](CCC(=O)O)C(=O)N[C@@H](C)C(N)=O)NC(=O)[C@H](C)NC(=O)[C@H](C)NC1=O [Example 16 A Ala^32 cyclic analog] (Ac-SLDLT[dF]HLLRE[Nle]LE[Nle]AKAEQEAEEAAKNRLLLEEA-NH2; lactam 24-27)
  in vitro biopotency, comparison in words: biopotency greater than the Standard peptide

## CCCC[C@H](NC(=O)[C@H](CCC(=O)O)NC(=O)[C@H](CC(C)C)NC(=O)[C@H](CCCC)NC(=O)[C@H](CCC(=O)O)NC(=O)[C@H](CCCNC(=N)N)NC(=O)[C@H](CC(C)C)NC(=O)[C@H](CC(C)C)NC(=O)[C@H](Cc1c[nH]cn1)NC(=O)[C@@H](Cc1ccccc1)NC(=O)[C@@H](NC(=O)[C@H](CC(C)C)NC(=O)[C@H](CC(=O)O)NC(=O)[C@H](CC(C)C)NC(=O)[C@H](CO)NC(C)=O)[C@@H](C)O)C(=O)N[C@@H](C)C(=O)N[C@@H](CCCCN)C(=O)N[C@@H](C)C(=O)N[C@@H](CCC(=O)O)C(=O)N[C@@H](CCC(N)=O)C(=O)N[C@@H](CCC(=O)O)C(=O)N[C@@H](C)C(=O)N[C@@H](CCC(=O)O)C(=O)N[C@H]1CCC(=O)NCCCC[C@@H](C(=O)N[C@@H](CC(N)=O)C(=O)N[C@@H](CCCNC(=N)N)C(=O)N[C@@H](CC(C)C)C(=O)N[C@@H](CC(C)C)C(=O)N[C@@H](CC(C)C)C(=O)N[C@@H](CCC(=O)O)C(=O)N[C@@H](CCC(=O)O)C(=O)N[C@@H](C)C(N)=O)NC(=O)[C@@H](Cc2c[nH]cn2)NC(=O)[C@H](C)NC1=O [Example 16 A D-His^32 cyclic analog] (Ac-SLDLT[dF]HLLRE[Nle]LE[Nle]AKAEQEAEEA[dH]KNRLLLEEA-NH2; lactam 24-27)
  in vitro biopotency, comparison in words: biopotency greater than the Standard peptide

## CCCC[C@H](NC(=O)[C@H](CCCCN)NC(=O)[C@H](CCCNC(=N)N)NC(=O)[C@H](CC(C)C)NC(=O)[C@H](CC(C)C)NC(=O)[C@H](CCC(=O)O)NC(=O)[C@@H](CC(C)C)NC(=O)[C@H](CO)NC(=O)[C@H](CC(C)C)NC(=O)[C@H](CC(=O)O)NC(=O)[C@@H](NC(=O)[C@H](CO)NC(C)=O)[C@@H](C)CC)C(=O)N[C@H](C(=O)N[C@@H](CCC(=O)O)C(=O)N[C@H](C(=O)N[C@@H](CCC(=O)O)C(=O)N[C@@H](CCCCN)C(=O)N[C@@H](CCC(N)=O)C(=O)N[C@@H](CCC(=O)O)C(=O)N[C@@H](CCCCN)C(=O)N[C@@H](CCC(=O)O)C(=O)N[C@@H](CCCCN)C(=O)N[C@@H](CCC(N)=O)C(=O)N[C@H]1CCC(=O)NCCCC[C@@H](C(=O)N[C@@H](CC(N)=O)C(=O)N[C@@H](CCCNC(=N)N)C(=O)N[C@@H](CC(C)C)C(=O)N[C@@H](CC(C)C)C(=O)N[C@@H](CC(C)C)C(=O)N[C@@H](CC(=O)O)C(=O)N[C@H](C(=O)N[C@H](C(N)=O)[C@@H](C)CC)[C@@H](C)O)NC(=O)[C@@H](C)NC(=O)[C@H](C)NC1=O)[C@@H](C)CC)[C@@H](C)CC [Example 16 C D-Ala^31 analog] (Ac-SIDLS[dL]ELLRK[Nle]IEIEKQEKEKQEA[dA]KNRLLLDTI-NH2; lactam 24-27)
  in vitro biopotency, comparison in words: shows increased biopotency

Source: US5824771A, “Cyclic CRF agonists” (The Salk Institute for Biological Studies, priority 1997, dated 1998)
